From patent US7998681B2, “Diagnosis and therapy of antibody-mediated inflammatory auto-immune disorders” (Los Angeles Biomedical Research Institute at Harbor-UCLA …, priority 2000, dated 2011)

Key:
[1] = test system: dermal fibroblast strains; experiment: Glycosaminoglycan (hyaluronan) synthesis in dermal fibroblasts; format: cell-based, human; conditions: dermal fibroblast strains from the same donors
Description: Applicants have also recently made a number of directly relevant observations of the disordered accumulation of hyaluronan in TAO. Orbital fibroblasts synthesize less hyaluronan constitutively than do dermal fibroblasts (Smith, T. J., Bahn, R. S. and Gorman, C. A.: Hormonal regulation of hyaluronate synthesis in cultured human fibroblasts: evidence for differences between retroocular and dermal fibroblasts. J. Clin. Endocrinol. Metab. 69:1019-1023, 1989). However, interferon-γ can modestly upregulate hyaluronan synthesis in orbital but not dermal fibroblasts (Smith, T. J., Bahn, R. S., Gorman, C. A. and Cheavens, M.: Stimulation of glycosaminoglycan accumulation by interferon gamma in cultured human retroocular fibroblasts. J. Clin. Endocrinol. Metab. 72:1169-1171, 1991). […] The macromolecular material was sensitive to Streptomyces hyaluronidase digestion, defining it as hyaluronan (Smith, T. J., Wang, H.-S. and Evans, C. H.: Leukoregulin is a potent inducer of hyaluronan synthesis in cultured orbital fibroblasts. Am. J. Physiol. 268:C382-C388, 1995, appended). The increase was substantially greater in magnitude than that observed in dermal fibroblast strains from the same donors (3-fold) and on the basis of pulse-chase studies could be attributed to changes in net synthesis.

[2] = test system: fibroblasts from patients with GD; experiment: T lymphocyte migration (chemotaxis) assay of conditioned medium from treated fibroblasts, GD donors; format: cell-based, human; conditions: IgG 100 ng/ml, IL-1β 10 ng/ml, 24 hours
Description: The general migration assay is described in detail in Sciaky, D., et al., “Cultured human fibroblasts express constitutive IL-16 mRNA: Cytokine induction of active IL-16 protein synthesis through a caspase-3-dependent mechanism,” J. Immunol. 164(7):3806-14 (2000), hereby incorporated fully by reference. Briefly, fibroblasts from TAO and normal orbital tissue were seeded in 24-well arrays and grown to confluence. Monolayers were shifted containing 1% FBS to which nothing, purified normal or TAO IgG was added for various time intervals. Medium was collected and stored until use at −80° C. Chemotaxis was examined using Boyden chambers to which NWNA-T lymphocytes were added as the cellular targets. 50 μl cell suspension (10^7 cells/ml) were placed in the upper compartments of 48-well micro-chemotaxis chambers separated from 32 μl of serum samples by 8 μm micropore nitrocellulose filters (Neuroprobe). These were incubated at 37° C. in 5% CO2 environment for 3 hr. Filters were fixed, stained with hematoxylin, dehydrated, mounted on glass slides and viewed by light microscopy. Lymphocyte migration was quantified by counting the total number of cells migrating beyond a fixed depth. This depth was set to routinely identify a baseline migration under control conditions of 10-15 cells per high power field. Five such fields were counted in duplicate for each sample and the means±SD were calculated and expressed as percentage values of baseline cell migration in control buffer alone (100%). For each set of experimental conditions, at least three separate determinations were performed. Differences between experimental groups were analyzed by the Student t test using absolute values obtained for lymphocyte migration and statistical difference was accepted at the 95% level of confidence.
To assess specificity for IL-16, experiments were conducted by incubating samples of culture media for 15 min with neutralizing concentrations of anti-IL-16 MAB (clone 14. 1, 10 μg/ml), which blocks the chemotactic activity of 50 ng/ml of rIL-16. Anti-RANTES MAB (5 μg/ml) having an ND50 of 200 ng/ml rRANTES was used to neutralize RANTES as described in Sciaky D., Brazer, W., Center, D. M., Cruikshank, W. W. and Smith, T. J.: Cultured human fibroblasts express constitutive IL-16 mRNA: Cytokine induction of active IL-16 protein synthesis through a caspase-3-dependent mechanism. J. Immunol. 164(7):3806-14, 2000).
Referring to FIGS. 3A-3C, serum concentrations of IL-16 are elevated in patients with active TAO. Moreover, both IL-16 and PGHS-2 protein can be detected in TAO orbital tissue. The concentration of IL-16 is determined in sera from either patients with Graves' disease or normal controls. The sera are subjected to an ELISA assay, which utilizes an anti-IL-16 specific antibody. IL-16 is detected by standard immunohistochemical techniques in thin sections harvested from affected orbital connective tissues from a patient with severe Graves' ophthalmopathy. In a separate measurement of IL-16 dependent T-cell migration, a panel of 11 different fibroblast strains from patients with Graves' disease and 5 from individuals without known thyroid disease were challenged with Graves' IgG (100 ng/ml), normal IgG (100 ng/ml) or IL-1β (10 ng/ml) for 24 hours and assessed for T cell migration activity and IL-16 production (Table II). Graves' IgG induced IL-16 dependent cell migration in 10 of the Graves' fibroblast strains which derived from orbit and skin from various anatomic regions. Included were strains from the pretibial skin as well as the abdominal wall and the neck. The latter two sites rarely manifest Graves' disease. A substantial fraction of Graves' IgG provoked T cell migration activity in most of these strains was resistant to neutralization with anti-IL-16. Similarly, chemoattractants produced by RA fibroblasts can be measured by T-cell migration. […]

IL-1β: pro-inflammatory cytokine used to activate fibroblasts
up-regulation of glycosaminoglycan synthesis [1]: 3 fold
T Cell Migration (% control) ([2]; strain 1, Orbit): 194 +/− 11 % control
T Cell Migration +anti-IL-16 ([2]; strain 1, Orbit): 149 +/− 8 % control
T Cell Migration +anti-RANTES ([2]; strain 1, Orbit): 167 +/− 10 % control
T Cell Migration (% control) ([2]; strain 2, Orbit): 195 ± 13 % control
T Cell Migration +anti-IL-16 ([2]; strain 2, Orbit): 171 ± 7 % control
T Cell Migration +anti-RANTES ([2]; strain 2, Orbit): 170 ± 8 % control
T Cell Migration (% control) ([2]; strain 3, Abdominal skin): 195 +/− 13 % control
T Cell Migration +anti-IL-16 ([2]; strain 3, Abdominal skin): 171 +/− 7 % control
T Cell Migration +anti-RANTES ([2]; strain 3, Abdominal skin): 171 +/− 8 % control
T Cell Migration (% control) ([2]; strain 4, Orbit): 236 ± 19 % control
T Cell Migration +anti-IL-16 ([2]; strain 4, Orbit): 175 ± 12 % control
T Cell Migration +anti-RANTES ([2]; strain 4, Orbit): 188 ± 9 % control
T Cell Migration (% control) ([2]; strain 5, Abdominal skin): 144 ± 8 % control
T Cell Migration +anti-IL-16 ([2]; strain 5, Abdominal skin): 128 ± 8 % control
T Cell Migration +anti-RANTES ([2]; strain 5, Abdominal skin): 131 ± 5 % control
T Cell Migration (% control) ([2]; strain 6, Neck skin): 211 ± 13 % control
T Cell Migration +anti-IL-16 ([2]; strain 6, Neck skin): 148 ± 10 % control
T Cell Migration +anti-RANTES ([2]; strain 6, Neck skin): 178 ± 12 % control
T Cell Migration (% control) ([2]; strain 7, Pretibial skin): 236 ± 19 % control
T Cell Migration +anti-IL-16 ([2]; strain 7, Pretibial skin): 175 ± 12 % control
T Cell Migration +anti-RANTES ([2]; strain 7, Pretibial skin): 188 ± 9 % control
T Cell Migration (% control) ([2]; strain 8, Pretibial skin): 204 ± 14 % control
T Cell Migration +anti-IL-16 ([2]; strain 8, Pretibial skin): 164 ± 10 % control
T Cell Migration +anti-RANTES ([2]; strain 8, Pretibial skin): 173 ± 8 % control
T Cell Migration (% control) ([2]; strain 9, Orbit): 243 +/− 13 % control
T Cell Migration +anti-IL-16 ([2]; strain 9, Orbit): 167 +/− 11 % control
T Cell Migration +anti-RANTES ([2]; strain 9, Orbit): 189 +/− 10 % control
T Cell Migration (% control) ([2]; strain 10, Orbit): 248 +/− 19 % control
T Cell Migration +anti-IL-16 ([2]; strain 10, Orbit): 189 +/− 14 % control
T Cell Migration +anti-RANTES ([2]; strain 10, Orbit): 206 +/− 12 % control
T Cell Migration (% control) ([2]; strain 11, Orbit): 210 +/− 13 % control
T Cell Migration +anti-IL-16 ([2]; strain 11, Orbit): 162 +/− 11 % control
T Cell Migration +anti-RANTES ([2]; strain 11, Orbit): 183 +/− 6 % control
